Reference: patent US20220125777A1, “COMBINATION OF A CDK INHIBITOR AND A PIM INHIBITOR” (Pfizer Inc., priority 2019, published 2022)

System: HR+/HER2− advanced or metastatic breast cancer
Assay: Study 2: progression-free survival by PIM2 mRNA expression, palbociclib plus fulvestrant vs placebo plus fulvestrant
Type: in vivo, human
Details: Study 2, control arm, fulvestrant alone (placebo plus fulvestrant 500 mg IM); FIG. 2A
Protocol: Study 2 was conducted in HR+/HER2− advanced or metastatic breast cancer (MBC) patients who had progressed on prior endocrine therapy. Pre- and peri-menopausal subjects were given an LHRH agonist. Subjects were treated with palbociclib (125 mg QD, 3/1 schedule) plus fulvestrant (500 mg IM on Days 1 and 15 of Cycle 1, and then Day 1 of each subsequent 28-day cycle) or placebo (3/1 schedule QD) plus fulvestrant on the same schedule. In both studies, the primary outcome was PFS as assessed by the investigator.
Tumor samples were analyzed to identify potential predictive biomarkers for palbociclib plus letrozole treatment. Using the EdgeSeq Oncology BM Panel, mRNA expression was assessed for 2534 cancer-related genes. […] Targeted capture sequencing was used to quantitate RNA expression levels of gene targets. […]
The primary outcome was PFS as assessed by the investigator.
Tumor samples were analyzed by EdgeSeq Oncology BM Panel (HTG Molecular Diagnostics; https://www.htgmolecular.com/assays/obp) for mRNA expression assessment of 2534 cancer-related genes. […]
The EdgeSeq system used was validated and used targeted capture sequencing to quantitate RNA expression levels of gene targets in formalin-fixed paraffin-embedded tumor tissues. […]

## C[C@]12CC[C@@H]3c4ccc(O)cc4C[C@@H](CCCCCCCCC[S+]([O-])CCCC(F)(F)C(F)(F)F)[C@H]3[C@@H]1CC[C@@H]2O (stereo partly shown) [fulvestrant]
  PFS of subjects having low PIM2 expression versus higher PIM2 expression: shorter PFS
